The text below walks through data of PubChem BioAssay AID250 (DTP/NCI, 2004).

This assay deals with BDF1 mice, L1210 leukemia sc, survival T/C. Description: NCI In Vivo Anticancer Drug Screen. Data for tumor model L1210 Leukemia (subcutaneous) in B6D2F1 (BDF1) mice. To be noted: endpoint: median survival time, higher = longer survival. In short, it runs like this:
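Expressed as T/C: measurement in compound-treated, tumor-bearing mice relative to vehicle-treated control mice, based on survival or tumor size.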

[1] abbreviates: dose: 14.0 mg/kg/injection, schedule: Q01DX Z (sc), vehicle: methylcellulose (MC).
Where [2] appears, read: dose: 108.0 mg/kg/injection, schedule: Q01DX Z (sc), vehicle: methylcellulose (MC).
Setting [3] is: dose: 180.0 mg/kg/injection, schedule: Q01DX Z (sc), vehicle: methylcellulose (MC).
The mark [4] stands for this setting: dose: 300.0 mg/kg/injection, schedule: Q01DX Z (sc), vehicle: methylcellulose (MC).
Where [5] appears, read: dose: 23.0 mg/kg/injection, schedule: Q01DX Z (sc), vehicle: methylcellulose (MC).
Setting [6] is: dose: 39.0 mg/kg/injection, schedule: Q01DX Z (sc), vehicle: methylcellulose (MC).
The mark [7] stands for this setting: dose: 65.0 mg/kg/injection, schedule: Q01DX Z (sc), vehicle: methylcellulose (MC).

The structures appear in SMILES notation. Where “and” joins values, the source holds several entries; their conditions need not be identical. Identical values can stand only once. Inconclusive results and toxic doses are left out.

Consider `Nc1ncnc2[nH]ncc12`, for which the T/C by setting is: (dose: 3.0 mg/kg/injection, schedule: Q01DX Z (sc), vehicle: methylcellulose (MC)) 100 % of control; (dose: 5.0 mg/kg/injection, schedule: Q01DX Z (sc), vehicle: methylcellulose (MC)) 112 % of control; (dose: 8.4 mg/kg/injection, schedule: Q01DX Z (sc), vehicle: methylcellulose (MC)) 112 % of control and 115 % of control; under setting [1], 108 % of control; (dose: 23.3 mg/kg/injection, schedule: Q01DX Z (sc), vehicle: methylcellulose (MC)) 91 % of control; (dose: 38.9 mg/kg/injection, schedule: Q01DX Z (sc), vehicle: methylcellulose (MC)) 120 % of control. The T/C was 116 % of control (dose: 46.8 mg/kg/injection, schedule: Q01DX Z (sc), vehicle: methylcellulose (MC)); 100 % of control (dose: 64.8 mg/kg/injection, schedule: Q01DX Z (sc), vehicle: methylcellulose (MC)); 100 % of control (dose: 78.0 mg/kg/injection, schedule: Q01DX Z (sc), vehicle: methylcellulose (MC)); 100 % of control under setting [2]; 91 % of control (dose: 130.0 mg/kg/injection, schedule: Q01DX Z (sc), vehicle: methylcellulose (MC)); 100 % of control under setting [3]. Besides, the T/C under setting [4] was 100 % of control.

`CNC=O`: the T/C reads like this: (dose: 112.0 mg/kg/injection, schedule: Q01DX Z (sc), vehicle: saline) 100 % of control; (dose: 187.0 mg/kg/injection, schedule: Q01DX Z (sc), vehicle: saline) 104 % of control; (dose: 311.0 mg/kg/injection, schedule: Q01DX Z (sc), vehicle: saline) 116 % of control.

Turning to `NC(CSC(c1ccccc1)(c1ccccc1)c1ccccc1)C(=O)O` (centres undefined), the T/C runs as follows: (dose: 5.0 mg/kg/injection, schedule: Q03HX003 (sc), vehicle: saline) 114 % of control; (dose: 8.4 mg/kg/injection, schedule: Q03HX003 (sc), vehicle: saline) 117 % of control; (dose: 23.0 mg/kg/injection, schedule: Q03HX003 (sc), vehicle: saline) 150 % of control; (dose: 39.0 mg/kg/injection, schedule: Q03HX003 (sc), vehicle: saline) 92 % of control; (dose: 65.0 mg/kg/injection, schedule: Q01DX009 (sc), vehicle: saline) 150 % of control; (dose: 108.0 mg/kg/injection, schedule: Q04DX003 (sc), vehicle: saline) 121 % of control. The T/C (dose: 300.0 mg/kg/injection, schedule: Q02DX005 (sc), vehicle: saline) was 89 % of control; the T/C (dose: 500.0 mg/kg/injection, schedule: Q02DX005 (sc), vehicle: saline) was 92 % of control; the T/C (dose: 833.0 mg/kg/injection, schedule: Q04DX003 (sc), vehicle: saline) was 114 % of control.

On to `Cc1c2ccncc2c(C)c2c1[nH]c1ccccc12`, for which the T/C is, setting by setting: (dose: 5.0 mg/kg/injection, schedule: Q03HX008 (ip), vehicle: steriod suspending solution) 111 % of control; (dose: 5.0 mg/kg/injection, schedule: Q03HX008 (sc), vehicle: steriod suspending solution) 100 % of control; (dose: 10.0 mg/kg/injection, schedule: Q03HX008 (ip), vehicle: steriod suspending solution) 111 % of control; (dose: 10.0 mg/kg/injection, schedule: Q03HX008 (sc), vehicle: steriod suspending solution) 111 % of control; (dose: 20.0 mg/kg/injection, schedule: Q03HX008 (sc), vehicle: steriod suspending solution) 111 % of control; (dose: 40.0 mg/kg/injection, schedule: Q03HX008 (ip), vehicle: steriod suspending solution) 150 % of control.

Consider `CS(=O)(=O)OCCCl`, for which the T/C is 90 % of control under setting [1], 95 % of control under setting [5], 90 % of control under setting [6] and 100 % of control under setting [7].

As for `CCNC(=O)c1cccnc1`, the T/C reads like this: (dose: 8.4 mg/kg/injection, schedule: Q01DX Z (sc), vehicle: water) 100 % of control; (dose: 77.8 mg/kg/injection, schedule: Q01DX Z (sc), vehicle: water) 100 % of control; (dose: 130.0 mg/kg/injection, schedule: Q01DX Z (sc), vehicle: water) 95 % of control; (dose: 216.0 mg/kg/injection, schedule: Q01DX Z (sc), vehicle: water) 100 % of control; (dose: 360.0 mg/kg/injection, schedule: Q01DX Z (sc), vehicle: water) 100 % of control; (dose: 600.0 mg/kg/injection, schedule: Q01DX Z (sc), vehicle: water) 100 % of control. Moreover, the T/C (dose: 1000.0 mg/kg/injection, schedule: Q01DX Z (sc), vehicle: water) is 109 % of control.

Regarding `C=CC(O)CN1CC1` (centres undefined), the T/C (dose: 0.65 mg/kg/injection, schedule: Q01DX Z (sc), vehicle: saline) is 100 % of control; the T/C (dose: 1.08 mg/kg/injection, schedule: Q01DX Z (sc), vehicle: saline) is 100 % of control; the T/C (dose: 1.7 mg/kg/injection, schedule: Q01DX Z (sc), vehicle: saline) was 100 % of control; the T/C (dose: 1.8 mg/kg/injection, schedule: Q01DX Z (sc), vehicle: saline) is 100 % of control; the T/C (dose: 2.8 mg/kg/injection, schedule: Q01DX Z (sc), vehicle: saline) was 111 % of control; the T/C (dose: 3.0 mg/kg/injection, schedule: Q02DX Z (sc), vehicle: saline) is 104 % of control. The T/C runs as follows: (dose: 4.7 mg/kg/injection, schedule: Q01DX Z (sc), vehicle: saline) 160 % of control; (dose: 5.0 mg/kg/injection, schedule: Q01DX Z (sc), vehicle: saline) 155 % of control and 159 % of control and 163 % of control; (dose: 5.0 mg/kg/injection, schedule: Q02DX Z (sc), vehicle: saline) 118 % of control; (dose: 7.8 mg/kg/injection, schedule: Q01DX Z (sc), vehicle: saline) 170 % of control and 177 % of control; (dose: 8.4 mg/kg/injection, schedule: Q01DX Z (sc), vehicle: saline) 122 % of control; (dose: 8.4 mg/kg/injection, schedule: Q## X Z (sc), vehicle: saline) 109 % of control. The T/C (dose: 14.0 mg/kg/injection, schedule: Q01DX Z (sc), vehicle: saline) was 113 % of control; the T/C (dose: 14.0 mg/kg/injection, schedule: Q02DX Z (sc), vehicle: saline) was 181 % of control; the T/C (dose: 14.0 mg/kg/injection, schedule: Q## X Z (sc), vehicle: saline) was 118 % of control; the T/C (dose: 21.6 mg/kg/injection, schedule: Q01DX Z (sc), vehicle: saline) was 110 % of control; the T/C (dose: 23.0 mg/kg/injection, schedule: Q01DX Z (sc), vehicle: saline) was 100 % of control; the T/C (dose: 23.0 mg/kg/injection, schedule: Q02DX Z (sc), vehicle: saline) was 150 % of control. For the same molecule, the T/C is, setting by setting: (dose: 23.0 mg/kg/injection, schedule: Q## X Z (sc), vehicle: saline) 154 % of control; (dose: 36.0 mg/kg/injection, schedule: Q01DX Z (sc), vehicle: saline) 111 % of control; (dose: 39.0 mg/kg/injection, schedule: Q## X Z (sc), vehicle: saline) 159 % of control; (dose: 60.0 mg/kg/injection, schedule: Q01DX Z (sc), vehicle: saline) 100 % of control; (dose: 65.0 mg/kg/injection, schedule: Q01DX001 (sc), vehicle: saline) 118 % of control; (dose: 65.0 mg/kg/injection, schedule: Q02DX Z (sc), vehicle: saline) 104 % of control. In addition, the T/C (dose: 65.0 mg/kg/injection, schedule: Q## X Z (sc), vehicle: saline) is 109 % of control.

Turning to `NC(=O)c1ccc([N+](=O)[O-])cc1`, the T/C reads like this: under setting [5], 90 % of control; under setting [6], 100 % of control; under setting [7], 90 % of control; under setting [2], 90 % of control; under setting [3], 90 % of control; under setting [4], 100 % of control. Besides, the T/C (dose: 500.0 mg/kg/injection, schedule: Q01DX Z (sc), vehicle: methylcellulose (MC)) was 100 % of control.
